Patent publication US9309222B2, “Phenyl linked quinolinyl modulators of RORγt” (Janssen Pharmaceutica NV, priority 2012, dated 2016)
Structures can show the parent of a compound that is named as a salt.

Assays:
[1] = molecular target: T1, human RORγt LBD (Homo sapiens, UniProt P51449); assay: RORγt reporter assay (GAL4-RORγt LBD luciferase in HEK293T cells); format: cell-based; conditions: for IC50: HEK293T cells, 24 hours compound treatment; for inhibition at 6 µM: HEK-293T, read-out: RORγt reporter Assay, % inhibition @ 6 μM, HEK293T cells, 6 μM compound
T1 construct: expressed in transfected cells
T1 sequence (P51449 258-518): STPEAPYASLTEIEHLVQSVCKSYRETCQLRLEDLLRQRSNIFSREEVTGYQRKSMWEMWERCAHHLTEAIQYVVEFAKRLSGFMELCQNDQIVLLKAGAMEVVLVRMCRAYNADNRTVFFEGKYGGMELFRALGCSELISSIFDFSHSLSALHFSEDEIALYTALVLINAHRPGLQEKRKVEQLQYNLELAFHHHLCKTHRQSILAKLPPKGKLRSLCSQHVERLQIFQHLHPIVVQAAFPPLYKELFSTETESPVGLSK
Excerpt: A reporter assay was used to test functional activity of RORγt modulatory compounds on transcriptional activation driven by the RORγt LBD. Cells used in the assay were co-transfected with two constructs. The first construct, pBIND-RORγt LBD, contained the wild type human RORγt LBD fused to the DNA binding domain of the GAL4 protein. The second construct, pGL4.31 (Promega Cat no. C935A), contained multiple GAL4 responsive DNA elements upstream of firefly luciferase. […] The mutant construct was called pBIND-RORγt-AF2.
The pBIND vector contains the GAL4 DNA Binding Domain (GAL4 DBD) and the renilla luciferase gene under control of the SV40 promoter. Renilla luciferase expression serves as a control for transfection efficiency and cell viability.
The reporter assay was performed by transiently transfecting HEK293T cells with 5 ng of pBIND-RORγt LBD or pBIND-RORγt LBD-AF2 and 5 μg pGL4.31 (Promega Cat no. C935A) using Fugene 6 (Invitrogen Cat no. E2691) at a 1:6 ratio of DNA:Fugene 6 in a T-75 flask in which cells were at least 80% confluent. Twenty four hours after bulk transfection, cells were plated into 96-well plates at 50,000 cells/well in phenol-red free DMEM containing 5% Lipid Reduced FCS and Pen/Strep. Six hours after plating, cells were treated with compounds for 24 hours. Media was removed and cells were lysed with 50 μL 1× Glo Lysis Buffer (Promega). Dual Glo Luciferase Reagent (50 μL/well) was then added and firefly luciferase luminescence was read on an Envision after a ten minute incubation. Finally, Stop and Glo reagent (50 μL/well) was added and renilla luciferase luminescence was read on an Envision after a ten minute incubation. To calculate the effect of compounds on RORγt activity, the ratio of firefly to renilla luciferase was determined and plotted against compound concentration. Agonist compounds increase RORγt-driven luciferase expression, and antagonist or inverse agonist compounds decrease luciferase expression.

[2] = molecular target: T2, human RORγt ligand binding domain (RORγt LBD) (Homo sapiens, UniProt P51449); assay: RORγt ThermoFluor assay (thermal shift, ligand binding affinity); conditions: estimated from concentration response of thermal shift
T2 construct: His-tag (N); TurboTEV protease cleavage site (ENLYFQG) (N); made in house; host or cells: E. coli (pHIS1, modified pET vector)
T2 sequence (P51449 with tags, fused parts or gaps): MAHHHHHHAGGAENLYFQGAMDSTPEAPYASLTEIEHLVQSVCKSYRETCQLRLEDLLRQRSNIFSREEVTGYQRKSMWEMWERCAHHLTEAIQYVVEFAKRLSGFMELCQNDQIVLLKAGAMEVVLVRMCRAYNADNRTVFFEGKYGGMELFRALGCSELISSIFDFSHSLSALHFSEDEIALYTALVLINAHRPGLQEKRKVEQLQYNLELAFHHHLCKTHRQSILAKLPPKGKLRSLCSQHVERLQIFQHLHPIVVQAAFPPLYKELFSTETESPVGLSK
Procedure: This approach is applicable to a wide variety of systems, and rigorous in theoretical interpretation through quantitation of equilibrium binding constants (KD).
The shift in the melting point described as a ΔTm is proportional to the concentration and affinity of the ligand.
RORγt ThermoFluor® Assay Construct
Protein and compound solutions are dispensed into black 384-well polypropylene PCR microplates (Abgene) and overlayed with silicone oil (1 μL Fluka, type DC 200) to prevent evaporation.
Fluorescence was measured by continuous illumination with UV light (Hamamatsu LC6) supplied via fiber optic and filtered through a band-pass filter (380-400 nm; >6 OD cutoff). Fluorescence emission of the entire 384-well plate was detected by measuring light intensity using a CCD camera (Sensys, Roper Scientific) filtered to detect 500±25 nm, resulting in simultaneous and independent readings of all 384 wells. Images were collected at each temperature, and the sum of the pixel intensity in a given area of the assay plate was recorded versus temperature. Reference wells contained RORγt without compounds, and the assay conditions were as follows: • 0.065 mg/mL RORγt • 60 μM 1,8-ANS • 100 mM Hepes, pH 7.0 • 10 mM NaCl • 2.5 mM GSH • 0.002% Tween-20
Project compounds were arranged in a pre-dosed mother plate (Greiner Bio-one) wherein compounds are serially diluted in 100% DMSO by 1:2 from a high concentration of 10 mM over 12 columns within a series (column 12 is a reference well containing DMSO, no compound).
The compounds were robotically dispensed directly into assay plates (1×=[…]) using a Hummingbird capillary liquid handling instrument (Digilab). Following compound dispense, protein and dye in buffer was added to achieve the final assay volume of 3 μL, followed by 1 μL of silicone oil.

Structure (SMILES)	IC50 [1]	inhibition at 6 µM [1]	Kd [2]
CN(C)c1ccc(C(O)(c2ccc3nc(Cl)c(-c4ccccc4)c(Cl)c3c2)c2cncn2C)cn1 (stereo not drawn) [Example 11, (2,4-Dichloro-3-phenylquinolin-6-yl)[6-(dimethylamino)pyridin-3-yl](1-methyl-1H-imidazol-5-yl)methanol•TFA]	4.2 µM	75%	1.1 µM
CN1CCN(c2nc3ccc(C(O)(c4ccncc4)c4cncn4C)cc3c(Cl)c2-c2ccccc2)CC1 (stereo not drawn) [Example 19, [4-Chloro-2-(4-methylpiperazin-1-yl)-3-phenylquinolin-6-yl](1-methyl-1H-imidazol-5-yl)pyridin-4-ylmethanol•TFA]	> 6 µM	13%	9.1 µM
OC(c1ccncc1)(c1ccc2nc(Cl)c(-c3ccccc3)c(Cl)c2c1)c1ccccn1 (stereo not drawn) [Example 27, (2,4-Dichloro-3-phenylquinolin-6-yl)(pyridin-2-yl)pyridin-4-ylmethanol•TFA]	4.2 µM	75%	8.3 µM
Cn1cncc1C(N)(c1ccc2nc(Cl)c(-c3ccccc3)c(Cl)c2c1)c1ccccn1 (stereo not drawn) [Example 31, 1-(2,4-Dichloro-3-phenylquinolin-6-yl)-1-(1-methyl-1H-imidazol-5-yl)-1-pyridin-2-ylmethanamine•HCl]	2.1 µM	67%	5.6 µM
Cn1cncc1C(O)(c1cccnc1)c1ccc2ncc(-c3ccccc3)c(Cl)c2c1 (stereo not drawn) [Example 51, (4-Chloro-3-phenylquinolin-6-yl)(1-methyl-1H-imidazol-5-yl)pyridin-3-ylmethanol•TFA]	~4 µM	75%	1.8 µM
OC(c1cccnc1)(c1cccc(Cl)c1)c1ccc2ncc(-c3ccccc3)c(Cl)c2c1 (stereo not drawn) [Example 52, (3-Chlorophenyl)(4-chloro-3-phenylquinolin-6-yl)pyridin-3-ylmethanol]	~3 µM	80%	1.3 µM
COc1cccc(C(O)(c2cccnc2)c2ccc3ncc(-c4ccccc4)c(Cl)c3c2)c1 (stereo not drawn) [Example 58, (4-Chloro-3-phenylquinolin-6-yl)(3-methoxyphenyl)pyridin-3-ylmethanol]	~6 µM	40%	2.2 µM
COc1ccc(C(O)(c2cccnc2)c2ccc3ncc(-c4ccccc4)c(Cl)c3c2)cc1 (stereo not drawn) [Example 59, (4-Chloro-3-phenylquinolin-6-yl)(4-methoxyphenyl)pyridin-3-ylmethanol]	~6 µM	37%	4.4 µM
OC(c1ccc(Cl)nc1)(c1cccc(F)c1)c1ccc2ncc(-c3ccccc3)c(Cl)c2c1 (stereo not drawn) [Example 61, (4-Chloro-3-phenylquinolin-6-yl)(6-chloropyridin-3-yl)(3-fluorophenyl)methanol]	2 µM	80%	1.8 µM

The remaining lines, values ahead:

IC50 [1]	inhibition at 6 µM [1]	Kd [2]	Structure (SMILES)
0.8 µM	89%	0.23 µM	COCOc1ccc(C(O)(c2cccnc2)c2ccc3nc(Cl)c(-c4ccccc4)c(Cl)c3c2)cc1 (stereo not drawn) [Example 23, (2,4-Dichloro-3-phenylquinolin-6-yl)[4-(methoxymethoxy)phenyl]pyridin-3-ylmethanol]
~0.2 µM	99%	0.23 µM	OC(c1cccnc1)(c1ccc2nc(Cl)c(-c3ccccc3)c(Cl)c2c1)c1ccccc1Cl (stereo not drawn) [Example 28, (2-Chlorophenyl)(2,4-dichloro-3-phenylquinolin-6-yl)pyridin-3-ylmethanol•TFA]
2 µM	78%	3.3 µM	CN(C)c1c(-c2ccccc2)c(Cl)nc2ccc(C(O)(c3ccc(Cl)cc3)c3cccnc3)cc12 (stereo not drawn) [Example 33, [2-Chloro-4-(dimethylamino)-3-phenylquinolin-6-yl](4-chlorophenyl)pyridin-3-ylmethanol•TFA]
1.6 µM	86%	2.5 µM	CN(C)c1c(-c2ccccc2)c(Cl)nc2ccc(C(O)(c3ccc(F)cc3)c3cccnc3)cc12 (stereo not drawn) [Example 39, [2-Chloro-4-(dimethylamino)-3-phenylquinolin-6-yl](4-fluorophenyl)pyridin-3-ylmethanol•TFA]
~2 µM	91%	1.4 µM	CN(C)c1c(-c2ccccc2)c(Cl)nc2ccc(C(O)(c3cccnc3)c3cccc(Cl)c3)cc12 (stereo not drawn) [Example 42, [2-Chloro-4-(dimethylamino)-3-phenylquinolin-6-yl](3-chlorophenyl)pyridin-3-ylmethanol•TFA]
1.1 µM	99%	1.6 µM	CN(C)c1nc2ccc(C(O)(c3cccnc3)c3ccccn3)cc2c(Cl)c1-c1ccccc1 (stereo not drawn) [Example 43, [4-Chloro-2-(dimethylamino)-3-phenylquinolin-6-yl](pyridin-2-yl)pyridin-3-ylmethanol•TFA]
1.6 µM	75%	2.9 µM	CN(C)c1c(-c2ccccc2)c(Cl)nc2ccc(C(O)(c3cccnc3)c3ccccc3Cl)cc12 (stereo not drawn) [Example 45, [2-Chloro-4-(dimethylamino)-3-phenylquinolin-6-yl](2-chlorophenyl)pyridin-3-ylmethanol•TFA]
2 µM	94%	4 µM	Cc1cc(C(O)(c2ccc3nc(Cl)c(-c4ccccc4)c(Cl)c3c2)c2nccn2C)cc(Cl)n1 (stereo not drawn) [Example 46, (2-Chloro-6-methylpyridin-4-yl)(2,4-dichloro-3-phenylquinolin-6-yl)(1-methyl-1H-imidazol-2-yl)methanol]
~2 µM	61%	0.95 µM	Cn1cncc1C(O)(c1ccncc1)c1ccc2ncc(-c3ccccc3)c(Cl)c2c1 (stereo not drawn) [Example 53, (4-Chloro-3-phenylquinolin-6-yl)(1-methyl-1H-imidazol-5-yl)pyridin-4-ylmethanol•TFA]
0.82 µM	92%	0.33 µM	COc1ccc(C(O)(c2cccnc2)c2ccc3nc(Cl)c(-c4ccccc4)c(Cl)c3c2)cc1 (stereo not drawn) [Example 55, (2,4-Dichloro-3-phenylquinolin-6-yl)(4-methoxyphenyl)(pyridin-3-yl)methanol]
~1 µM	86%	1.3 µM	OC(c1ccc(Cl)nc1)(c1cccc(Cl)c1)c1ccc2ncc(-c3ccccc3)c(Cl)c2c1 (stereo not drawn) [Example 60, (3-Chlorophenyl)(4-chloro-3-phenylquinolin-6-yl)(6-chloropyridin-3-yl)methanol]
